Among the data in ChEMBL document CHEMBL3865840, “Minimizing CYP2C9 Inhibition of Exposed-Pyridine NAMPT (Nicotinamide Phosphoribosyltransferase) Inhibitors” (J Med Chem, 2016) are Papp B→A, Papp A→B and IC50 values, retold here.

Data set [1] in a line: Apparent permeability from basolateral to apical side in MDCK cells at 10 uM by LC/MS/MS analysis. The following applies: dog. The class given is ADME, cell-based, Canis lupus familiaris.
Data set [2] is described as follows: Apparent permeability from apical to basolateral side in MDCK cells at 10 uM by LC/MS/MS analysis. The class given is ADME, cell-based, Canis lupus familiaris. The following applies: dog.
In a further data set the target is Cytochrome P450 2C9 (Homo sapiens, UniProt P11712).
Sequence of Cytochrome P450 2C9 (P11712 whole entry): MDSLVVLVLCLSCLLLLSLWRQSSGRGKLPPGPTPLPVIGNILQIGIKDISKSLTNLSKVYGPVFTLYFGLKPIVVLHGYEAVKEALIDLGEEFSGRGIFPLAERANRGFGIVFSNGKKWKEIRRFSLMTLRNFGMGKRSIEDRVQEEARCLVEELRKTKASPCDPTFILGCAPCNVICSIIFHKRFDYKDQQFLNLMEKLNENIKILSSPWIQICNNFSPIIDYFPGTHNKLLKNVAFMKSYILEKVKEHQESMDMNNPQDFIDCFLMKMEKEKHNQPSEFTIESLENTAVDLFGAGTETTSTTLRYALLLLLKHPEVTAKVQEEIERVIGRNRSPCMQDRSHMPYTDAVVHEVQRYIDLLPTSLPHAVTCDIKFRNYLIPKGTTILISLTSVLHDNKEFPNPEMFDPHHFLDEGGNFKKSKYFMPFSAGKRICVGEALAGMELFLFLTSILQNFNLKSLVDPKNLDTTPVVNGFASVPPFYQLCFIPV

pIC50: −log10 of the molar value.

For `O=C(CCC1CCOCC1)N1CCC2(CC1)CC2CNC(=O)N1Cc2ccncc2C1` (racemic), the basolateral-to-apical permeability (Papp B→A) at 10 µM in data set [1] is 11 ×10⁻⁶ cm/s. In data set [2], the Papp A→B at 10 µM amounted to 1.6 ×10⁻⁶ cm/s. Also, on Cytochrome P450 2C9, the pIC50 was less than 5.00.

As for `CC(C)(C)OC(=O)N1CCC2(CC1)CC2CNC(=O)c1cc2cnccc2[nH]1` (racemic), the apparent permeability from basolateral to apical (Papp B→A) at 10 µM in data set [1] is 14 ×10⁻⁶ cm/s. The Papp A→B at 10 µM in data set [2] was 15 ×10⁻⁶ cm/s. Besides, the pIC50 against Cytochrome P450 2C9 was less than 5.00.

`CC(C)(C)OC(=O)N1CCC(CCNC(=O)c2cc3cnccc3[nH]2)CC1`: the pIC50 against Cytochrome P450 2C9 is less than 5.00.

For `Cc1nn(C)cc1C(=O)N1CCC2(CC1)CC2CNC(=O)N1Cc2ccncc2C1` (racemic), the Papp B→A at 10 µM in data set [1] turned out to be 1.1 ×10⁻⁶ cm/s. The Papp A→B at 10 µM in data set [2] worked out at 0.2 ×10⁻⁶ cm/s.

Regarding `CN1CCC(c2ccc(C(=O)N3CCC4(CC3)CC4CNC(=O)N3Cc4ccncc4C3)cc2)CC1` (racemic), the apparent permeability from basolateral to apical (Papp B→A) at 10 µM in data set [1] was determined as 1 ×10⁻⁶ cm/s. Moreover, the Papp A→B at 10 µM in data set [2] came out at 0.2 ×10⁻⁶ cm/s. Further, the negative logarithm of the IC50 (pIC50) against Cytochrome P450 2C9 is less than 5.00.

Take `CC(C)(C)CC(=O)N1CCC2(CC1)CC2CNC(=O)N1Cc2ccncc2C1` (racemic): the Papp B→A at 10 µM in data set [1] is 13 ×10⁻⁶ cm/s. Moreover, the apparent permeability from apical to basolateral (Papp A→B) at 10 µM in data set [2] came out at 9.2 ×10⁻⁶ cm/s. In addition, the pIC50 at Cytochrome P450 2C9 is less than 5.00.

Take `Cc1nc(C)c(C(=O)N2CCC3(CC2)CC3CNC(=O)N2Cc3ccncc3C2)o1` (racemic): in data set [1], the Papp B→A at 10 µM stood at 9 ×10⁻⁶ cm/s. Besides, the Papp A→B at 10 µM in data set [2] worked out at 1.4 ×10⁻⁶ cm/s.

On to `CC(C)OC(=O)N1CCC2(CC1)CC2CNC(=O)N1Cc2ccncc2C1` (racemic), for which the Papp B→A at 10 µM in data set [1] was determined as 14 ×10⁻⁶ cm/s. In data set [2], the Papp A→B at 10 µM turned out to be 13 ×10⁻⁶ cm/s. The pIC50 against Cytochrome P450 2C9 was less than 5.00.

On to `CC1(OC(=O)N2CCC3(CC2)C[C@H]3CNC(=O)N2Cc3ccncc3C2)COC1`, for which, in data set [1], the basolateral-to-apical permeability (Papp B→A) at 10 µM is 15 ×10⁻⁶ cm/s. Also, in data set [2], the Papp A→B at 10 µM was found to be 11 ×10⁻⁶ cm/s.

Regarding `CC(C)(C)OC(=O)N1CCCC(CCNC(=O)c2cc3cnccc3[nH]2)C1` (racemic), the pIC50 against Cytochrome P450 2C9 is 5.47.

On Cytochrome P450 2C9, `CC(C)(C)OC(=O)N1CCC2(CC1)CC2CNC(=O)c1cc2ccncc2s1` (racemic) showed a negative logarithm of the IC50 (pIC50) of 5.14.

With `CC1(O)CC(CC(=O)N2CCC3(CC2)CC3CNC(=O)N2Cc3ccncc3C2)C1` (racemic), in data set [1], the apparent permeability from basolateral to apical (Papp B→A) at 10 µM came to 1 ×10⁻⁶ cm/s. For the same compound, the Papp A→B at 10 µM in data set [2] stood at 0.2 ×10⁻⁶ cm/s.

With `Cc1c(C(=O)N2CCC3(CC2)CC3CNC(=O)N2Cc3ccncc3C2)cnn1C` (racemic), the basolateral-to-apical permeability (Papp B→A) at 10 µM in data set [1] amounted to 2.6 ×10⁻⁶ cm/s. Further, the apical-to-basolateral permeability (Papp A→B) at 10 µM in data set [2] is 0.3 ×10⁻⁶ cm/s.

In turn, `CCOC(=O)N1CCC2(CC1)CC2CNC(=O)N1Cc2ccncc2C1` (racemic) showed a pIC50 against Cytochrome P450 2C9 of less than 5.00.

`O=C(CC1CCOCC1)N1CCC2(CC1)CC2CNC(=O)N1Cc2ccncc2C1` (racemic): the Papp B→A at 10 µM in data set [1] came to 7 ×10⁻⁶ cm/s. The Papp A→B at 10 µM in data set [2] was found to be 1.4 ×10⁻⁶ cm/s.

For the compound `Cc1ccncc1C(=O)N1CCC2(CC1)CC2CNC(=O)N1Cc2ccncc2C1` (racemic), the Papp B→A at 10 µM in data set [1] was 2.7 ×10⁻⁶ cm/s. In addition, in data set [2], the Papp A→B at 10 µM is 0.3 ×10⁻⁶ cm/s.

For `Nc1cc2cc(C(=O)NCc3ccc(S(=O)(=O)c4ccccc4)cc3)oc2cn1`, at Cytochrome P450 2C9, the pIC50 was 5.41.

`O=C(CCC(F)(F)F)N1CCC2(CC1)CC2CNC(=O)N1Cc2ccncc2C1` (racemic) gave a pIC50 against Cytochrome P450 2C9 of less than 5.00.

For `CC(C)(C)NC(=O)N1CCC2(CC1)CC2CNC(=O)N1Cc2ccncc2C1` (racemic), the pIC50 against Cytochrome P450 2C9 was less than 5.00.

The compound `[2H]C1([2H])c2ccncc2C([2H])([2H])N1C(=O)NCC1CC12CCN(C(=O)OC1(C)COC1)CC2` (racemic) had a pIC50 on Cytochrome P450 2C9 of less than 5.00.

Consider `Nc1cc2c(cn1)CN(C(=O)NCc1ccc(S(=O)(=O)c3ccccc3)cc1)C2`, for which, at Cytochrome P450 2C9, the negative-log IC50 (pIC50) is less than 5.00.

`Cc1nc(C)c(C(=O)N2CCC3(CC2)CC3CNC(=O)N2Cc3ccncc3C2)s1` (racemic): the Papp B→A at 10 µM in data set [1] turned out to be 11 ×10⁻⁶ cm/s. In addition, the Papp A→B at 10 µM in data set [2] amounted to 1.4 ×10⁻⁶ cm/s.

At Cytochrome P450 2C9, `CC(C)(C)OC(=O)N1CCC2(CC1)CC2CNC(=O)c1cnc2nccn2c1` (racemic) gave a pIC50 of less than 5.00.

Turning to `CC(C)(C)OC(=O)N1CCC2(CCC(CNC(=O)c3cc4cnccc4[nH]3)OC2)CC1` (racemic), on Cytochrome P450 2C9, the negative-log IC50 (pIC50) was less than 5.00.

As to `O=C(NCC1CC12CCN(CCc1ccccc1)CC2)N1Cc2ccncc2C1` (racemic), on Cytochrome P450 2C9, the pIC50 is less than 5.00.

In general, Papp B→A refers to the apparent permeability from the basolateral to the apical side of a cell layer. For orientation: Papp A→B means how fast a substance crosses the layer from the apical side. What is called pIC50 is the negative decadic logarithm of the IC50, by convention in mol/L. Lower therefore signals a large IC50.
